Assay results reported in US20090215774A1, “USES OF INDANE COMPOUNDS” (H. LUNDBECK A/S, priority 2008, published 2009).
Where two headings read alike, the source gives them in different places.

Columns and labels:
[1] = target: T1, 5-HTT Serotonin Transporter (Rattus norvegicus, UniProt P31652); assay: Measurements of [3H]-5-HT uptake into rat cortical synaptosomes; assay type: biochemical
T1 construct: Whole brains from male Wistar rats (125-225 g), excluding cerebellum, are homogenized; from tissue; host or cells: rat whole brain excluding cerebellum, synaptosomal (P2) pellet
Procedure: Measurements of [^3H]-5-HT Uptake Into Rat Cortical Synaptosomes
The homogenate is centrifuged at 1000×g for 10 rain at 4° C. The pellet is discarded and the supernatant is centrifuged at 40.000×g for 20 min. The final pellet is homogenized in assay buffer (0.5 mg original tissue/well). Test compounds (or buffer) and 10 nM [^3H]-5-HT are added to 96 well plates. […] The incubation is started by adding tissue to a final assay volume of 0.2 mL. After 15 min incubation with radioligand at 37° C., samples are filtered directly on Unifilter GF/C glass fiber filters (soaked for 30 min in 0.1% polyethylenimine) under vacuum and immediately washed with 1×0.2 ml assay buffer. Non-specific uptake is determined using citalopram (10 μM final concentration). Citalopram is included as reference in all experiments as dose-response curve.

[2] = target: NAT Noradrenergic Transporter (Rattus norvegicus, UniProt Q9WTR4); assay: Measurements of [3H]noradrenaline uptake into rat cortical synaptosomes; assay type: biochemical
Procedure: Measurements of [^3H]Noradrenaline Uptake Into Rat Cortical Synaptosomes
The homogenate is centrifuged at 1000×g for 10 min at 4° C. The pellet is discarded and the supernatant is centrifuged at 40.000×g for 20 min. […] Pellet is suspended in 140 volumes of assaybuffer. Tissue is mixed with test compounds and after 10 min pre-incubation, 10 nM [^3H]-noradrenaline is added to a final volume of 0.2 ml and the mixture is incubated for 15 min at 37° C. After 15 min incubation, samples are filtered directly on Unifilter GF/C glass fiber filters (soaked for 30 min in 0.1% polyethylenimine) under vacuum and immediately washed with 1×0.2 mL assay buffer. Non-specific uptake is determined using talsupram (10 μM final concentration). Duloxetine is included as reference in all experiments as dose-response curve.

DAT Dopamine Transporter = target: T2, DAT Dopamine Transporter (Rattus norvegicus, UniProt P23977); assay: Measurements of [3H]dopamine uptake into rat cortical synaptosomes; assay type: biochemical
T2 construct: male wistar rats (125-250 g) are sacrificed by decapitation and striatum quickly dissected out; from tissue; host or cells: rat striatum, P2 fraction
Procedure: Measurements of [^3H]Dopamine Uptake Into Rat Cortical Synaptosomes
The tissue is gently homogenised (glass teflon homogeniser) and the P2 fraction is obtained by centrifugation (1000 g, 10 minutes and 40000 g, 20 minutes, 4° C.) and suspended in 560 volumes of a modified Krebs-Ringer-phosphate buffer, pH 7.4.
Tissue 0.25 mg/well (140 μl) (original tissue) is mixed with test suspension. […] Final volume is 0.2 mL. The incubation is terminated by filtering the samples under vacuum through Whatman GF/C filters with a wash of 1×0.2 ml buffer. The filters are dried and appropriate scintillation fluid (Optiphase Supermix) is added. After storage for 2 hours in the dark the content of radioactivity is determined by liquid scintillation counting. Uptake is obtained by subtracting the non-specific binding and passive transport measured in the presence of 100 μM of benztropin. For determination of the inhibition of uptake ten concentrations of drugs covering 6 decades are used.
^3H-DA=3,4-(ring-2,5,6-^3H)dopamine hydrochloride from New England Nuclear, specific activity 30-50 Ci/mmol.

[3] = 24 weeks' treatment, patients, cited from earlier work

Sequence of NAT Noradrenergic Transporter (Q9WTR4 6-550 limits assumed): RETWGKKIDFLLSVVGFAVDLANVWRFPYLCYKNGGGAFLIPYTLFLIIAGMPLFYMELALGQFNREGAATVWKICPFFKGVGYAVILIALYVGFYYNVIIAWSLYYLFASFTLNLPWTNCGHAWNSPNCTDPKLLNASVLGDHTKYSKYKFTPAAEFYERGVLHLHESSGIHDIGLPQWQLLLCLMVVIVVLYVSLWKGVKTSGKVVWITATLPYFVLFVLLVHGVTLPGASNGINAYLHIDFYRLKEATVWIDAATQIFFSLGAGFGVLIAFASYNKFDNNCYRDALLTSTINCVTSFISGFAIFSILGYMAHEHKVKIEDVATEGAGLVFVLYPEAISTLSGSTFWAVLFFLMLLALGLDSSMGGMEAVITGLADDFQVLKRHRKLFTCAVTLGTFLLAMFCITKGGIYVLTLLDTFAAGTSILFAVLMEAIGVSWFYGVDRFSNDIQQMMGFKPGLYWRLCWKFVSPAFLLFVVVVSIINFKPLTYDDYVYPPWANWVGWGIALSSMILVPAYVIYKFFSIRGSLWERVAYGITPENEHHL
T1 sequence (P31652 whole entry): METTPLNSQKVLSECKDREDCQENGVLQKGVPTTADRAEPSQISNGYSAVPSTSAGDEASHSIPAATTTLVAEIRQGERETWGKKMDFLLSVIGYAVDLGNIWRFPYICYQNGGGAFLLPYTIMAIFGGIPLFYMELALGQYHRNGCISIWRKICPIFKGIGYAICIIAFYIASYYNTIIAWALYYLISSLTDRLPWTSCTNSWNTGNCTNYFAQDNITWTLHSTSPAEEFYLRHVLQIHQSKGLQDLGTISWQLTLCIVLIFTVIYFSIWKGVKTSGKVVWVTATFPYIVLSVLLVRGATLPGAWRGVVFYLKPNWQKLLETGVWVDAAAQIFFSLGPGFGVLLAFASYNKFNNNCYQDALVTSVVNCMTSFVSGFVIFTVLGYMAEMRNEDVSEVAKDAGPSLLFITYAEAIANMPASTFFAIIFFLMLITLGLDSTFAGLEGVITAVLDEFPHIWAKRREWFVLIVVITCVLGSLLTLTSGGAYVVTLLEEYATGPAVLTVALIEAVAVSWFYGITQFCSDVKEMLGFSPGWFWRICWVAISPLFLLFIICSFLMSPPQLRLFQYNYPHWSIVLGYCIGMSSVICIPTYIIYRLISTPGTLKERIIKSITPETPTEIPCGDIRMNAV
T2 sequence (P23977 whole entry): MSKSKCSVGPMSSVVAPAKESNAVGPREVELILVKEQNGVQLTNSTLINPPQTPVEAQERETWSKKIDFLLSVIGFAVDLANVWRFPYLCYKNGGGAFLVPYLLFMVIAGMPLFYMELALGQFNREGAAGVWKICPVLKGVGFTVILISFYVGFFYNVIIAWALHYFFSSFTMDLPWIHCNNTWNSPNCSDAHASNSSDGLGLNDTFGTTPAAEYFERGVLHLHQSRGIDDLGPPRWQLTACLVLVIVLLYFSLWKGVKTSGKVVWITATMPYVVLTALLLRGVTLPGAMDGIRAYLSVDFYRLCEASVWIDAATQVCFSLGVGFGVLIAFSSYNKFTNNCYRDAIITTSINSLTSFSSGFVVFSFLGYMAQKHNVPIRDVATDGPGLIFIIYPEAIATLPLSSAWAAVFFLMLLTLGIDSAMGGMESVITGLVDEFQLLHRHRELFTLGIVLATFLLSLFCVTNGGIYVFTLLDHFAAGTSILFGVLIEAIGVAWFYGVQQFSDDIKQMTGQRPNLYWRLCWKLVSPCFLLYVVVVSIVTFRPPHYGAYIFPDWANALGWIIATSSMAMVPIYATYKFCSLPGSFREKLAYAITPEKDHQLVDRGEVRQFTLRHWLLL

SMILES	IC50 [1] [nM]	IC50 [2] [nM]	IC50 (DAT Dopamine Transporter) [nM]	average weight loss ([3]; 0.25 mg) [%]	average weight loss ([3]; 0.5 mg) [%]	average weight loss ([3]; 1 mg) [%]
CN[C@@H]1C[C@@H](c2c[nH]c3ccccc23)c2ccccc21 [Formula IX]	0.1 to 200	0.1 to 200	0.1 to 200	–	–	–
CN[C@@H]1C[C@@H](c2c[nH]c3ccc(Cl)cc23)c2ccccc21 [Formula VIII]	0.1 to 200	0.1 to 200	0.1 to 200	–	–	–
CN[C@H]1C[C@@H](c2c[nH]c3c(F)cccc23)c2ccccc21 [Formula VII]	0.1 to 200	0.1 to 200	0.1 to 200	–	–	–
CN[C@@H]1C[C@H](c2c[nH]c3c(F)cccc23)c2ccccc21 [Formula VI]	0.1 to 200	0.1 to 200	0.1 to 200	–	–	–
CN[C@@H]1C[C@@H](c2c[nH]c3cc(OC)ccc23)c2ccccc21 [Formula X]	0.1 to 200	0.1 to 200	0.1 to 200	–	–	–
CCOC[C@@H]1[C@@H](c2ccc(Cl)c(Cl)c2)C[C@@H]2CC[C@H]1N2C [Tesofensine]	–	–	–	6.5	11.2	12.6
